{
  "source": "patent US20220119447A1",
  "about": "“PEPTIDE AND FOR TREATING INFLAMMATORY DISEASE AND PAIN USING THE SAME” (PELL BIO-MED TECHNOLOGY CO., LTD., priority 2019, published 2022)",
  "key": {"[1]": {"tested_on": "CFA-induced arthritis ICR mice", "assay": "Paw withdraw threshold (von Frey Filament) over time after single oral administration in CFA-induced arthritis mice", "conditions": "for time after administration of best antinociceptive effect: oral, peptide 3 mg/kg, morphine 10 mg/kg, PWT at 0, 30, 60, 90, 120 min, effect started to decrease at 120 min"}, "[2]": {"tested_on": "TNF-α", "assay": "Serum TNF-α by ELISA in CFA-induced arthritis mice after weekly oral administration", "assay_type": "in vivo", "conditions": "3 mg/kg oral once a week, 4th to 12th week; serum on 12th week; FIG. 1", "method": "(§1) On the other hand, the mice administered with water were served as the control group, which also comprised 6 mice. The mice in the experimental group and the control group were sacrificed on the 12th week after administration. The serum collection is conducted by cardiac puncture. The Mouse TNF-α Quantikine ELISA Kit (R&D System, MTA00B), Mouse IL-6 Quantikine ELISA Kit (R&D System, M600B) and enzyme-linked immunosorbent assay (ELISA) were used to determine and collect the serum concentration of TNF-α and IL-6 of mice in the experimental group and the control group."}, "[3]": {"tested_on": "IL-6", "assay": "Serum IL-6 by ELISA in CFA-induced arthritis mice after weekly oral administration", "assay_type": "in vivo", "conditions": "3 mg/kg oral once a week, 4th to 12th week; serum on 12th week; vs control group; FIG. 2", "method": "as §1"}, "[4]": {"tested_on": "CFA-induced arthritis ICR mice", "assay": "Paw withdraw threshold (von Frey Filament) on weekly oral administration, 4th to 12th week, in CFA-induced arthritis mice", "assay_type": "in vivo", "conditions": "1 mg/kg oral once a week, 90 min after administration, increased from 0.4 g at 3rd week, FIG. 6", "excerpt": "Two dosage groups both contained 6 mice. […] The control group also contained 6 mice."}, "[5]": {"tested_on": "CFA-induced arthritis ICR mice", "assay": "Paw withdraw threshold (von Frey Filament) after low oral doses (μg/kg) in CFA-induced arthritis mice", "assay_type": "in vivo", "conditions": "90 min after administration; for PWT value of ipsilateral hind paw: rose from 0.065 g, FIG. 7; for PWT value of contralateral paw: rose from 0.32 g, FIG. 8", "excerpt": "Every dosage group contained 6 mice."}, "[6]": {"tested_on": "C57BL/6JNarl male mice", "assay": "Acid-induced abdominal constriction (writhing) assay", "assay_type": "in vivo", "conditions": "oral doses of 1 μg/kg and 10 mg/kg, among 0.1 μg/kg to 10 mg/kg tested; 10 min before 1% acetic acid; FIG. 9", "method": "(§2) For conducting nociceptive pain and acid-induced chronic widespread pain experiments, C57BL/6JNarl male mice (20 to 25 g) were housed in an environment with temperature control (24±0.5° C.) and 12-hour light-dark cycle (lights on during 08:00-20:00) and allowed free access to standard laboratory food and tap water. Animals were allowed to acclimatize for 20 to 30 min prior to experimental manipulations. Animal care and handling procedures were adopted in accordance with the International Association for the Study of Pain guidelines for those animals used in pain research, and the procedures were approved by the Committee for Ethics in Animal Research.\nAcid-induced abdominal constriction assay was performed in accordance with H. O. Collier, L. C. Dinneen, C. A. Johnson, C. Schneider, The abdominal constriction response and its suppression by analgesic drugs in the mouse. Br J Pharmacol Chemother 32, 295-310 (1968). In general, the mice from Preparation Example 3 were placed in a small observation chamber and habituated for 20 min. […] The numbers of abdominal constrictions in 30 min after acid injection were counted and the mean constriction numbers of mice of each group were calculated. […]"}, "[7]": {"tested_on": "C57BL/6JNarl male mice", "assay": "Radiant heat tail-flick test", "assay_type": "in vivo", "conditions": "oral doses of 0.1 μg/kg, 0.3 μg/kg, 0.1 mg/kg, 1 mg/kg, 3 mg/kg and 10 mg/kg, among 0.01 μg/kg to 10 mg/kg tested; mean latency 10-90 min; FIG. 9", "method": "as §2\nThe radiant heat tail-flick test was modified in accordance with F. E. D'Amour, D. L. Smith, A method for determining loss of pain sensation. The Journal of Pharmacology and Experimental Therapeutics 72, 74-79 (1941). The 5 to 12 mice from Preparation Example 3 were placed and acclimatized in the restrainers for 30 min prior to the tail-flick test. […] The latency was recorded every 10 min during the indicated time period (10-90 min) after oral administration with different dosages of the peptide of SEQ ID NO: 1 (0.01 μg/kg, 0.03 μg/kg, 0.1 μg/kg, 0.3 μg/kg, 1 μg/kg, 0.01 mg/kg, 0.1 mg/kg, 1 mg/kg, 3 mg/kg, and 10 mg/kg). Then the mean latency during 10-90 min was calculated. […]"}},
  "note": "Non-standard residues stand in square brackets, D forms with d. Residues, ends and D or L forms follow the SMILES beside them. pGlu = O=C1CC[C@@H](C(=O)O)N1",
  "data": [
    {"smiles": "CN1CC[C@]23c4c5ccc(O)c4O[C@H]2[C@@H](O)C=C[C@H]3[C@H]1C5", "note": "[morphine, reference compound]", "values": [
      {"measurement": "time after administration of best antinociceptive effect", "setting": "[1]", "value": 90, "unit": "min"}
    ]},
    {"smiles": "CC(C)[C@H](NC(=O)[C@H](C)NC(=O)[C@@H](NC(=O)[C@H](CCC(=O)O)NC(=O)[C@@H]1CCC(=O)N1)[C@@H](C)O)C(=O)N[C@@H](CO)C(=O)N[C@@H](CO)C(=O)N[C@@H](Cc1c[nH]cn1)C(=O)N[C@@H](CCC(=O)O)C(=O)N[C@@H](CCC(N)=O)C(=O)N[C@@H](CC(=O)O)C(=O)O", "note": "[peptide of SEQ ID NO: 1, Glp Glu Thr Ala Val Ser Ser His Glu Gln Asp] ([pGlu]ETAVSSHEQD-OH)", "values": [
      {"measurement": "serum concentration of TNF-α", "setting": "[2]", "value": "not detected"},
      {"measurement": "serum concentration of IL-6", "setting": "[3]", "value": "decreased compared to the control group"},
      {"measurement": "PWT value of contralateral paw", "setting": "[4]", "value": "0.6˜1.2 g"},
      {"measurement": "PWT value of ipsilateral hind paw", "setting": "[5]; 0.3 μg/kg oral", "value": 1, "unit": "g"},
      {"measurement": "PWT value of contralateral paw", "setting": "[5]; 0.3 μg/kg oral", "value": 1, "unit": "g"},
      {"measurement": "PWT value of ipsilateral hind paw", "setting": "[5]; 1 μg/kg oral", "value": 0.6, "unit": "g"},
      {"measurement": "PWT value of contralateral paw", "setting": "[5]; 1 μg/kg oral", "value": 1.4, "unit": "g"},
      {"measurement": "PWT value of ipsilateral hind paw", "setting": "[5]; 3 μg/kg oral", "value": 0.16, "unit": "g"},
      {"measurement": "PWT value of contralateral paw", "setting": "[5]; 3 μg/kg oral", "value": 1, "unit": "g"},
      {"measurement": "antinociceptive effect in the acid-induced writhing experiment", "setting": "[6]", "value": "best antinociceptive effect"},
      {"measurement": "antinociceptive effect in the radiant heat tail-flick test", "setting": "[7]", "value": "best antinociceptive effect"},
      {"measurement": "time after administration of best antinociceptive effect", "setting": "[1]", "value": 90, "unit": "min"},
      {"measurement": "antinociceptive effect compared with morphine", "setting": "[1]; peptide 3 mg/kg oral vs morphine 10 mg/kg oral, a lower amount was required", "value": "antinociceptive effect similar to morphine"},
      {"measurement": "PWT value of ipsilateral hind paw", "setting": "[1]; peptide 3 mg/kg oral, at 90 min, rose from 0.07 g, FIG. 3", "value": "0.9 ± 0.156", "unit": "g"},
      {"measurement": "PWT value of contralateral paw", "setting": "[1]; peptide 3 mg/kg oral, at 90 min, rose from 0.5±0.047 g, FIG. 4", "value": "1.35 ± 0.193", "unit": "g"}
    ]}
  ]
}
